Experimental data published in PubChem BioAssay AID330 (DTP/NCI, 2004).
Values joined by “and” are separate entries in the source; they are usually repeats but may differ in a detail not shown here. Identical values can stand only once. Toxic doses and inconclusive results are not listed. Rule for the calls: active = survival T/C of 150% or more; inactive = T/C below 125% in these data.

Test system: P388 leukemia ip, CD2F1 mice, survival T/C
Assay: NCI In Vivo Anticancer Drug Screen. Data for tumor model P388 Leukemia (intraperitoneal) in CD2F1 (CDF1) mice
Settings: endpoint: median survival time, higher = longer survival
In short: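 Mice carrying the transplanted tumor received test compound or vehicle. Survival was recorded in each group, and the value is the treated-group measurement divided by that of the vehicle-treated control group.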

[1] = dose: 50.0 mg/kg/injection, schedule: Q01DX005 (ip), vehicle: saline with Tween-80
[2] = dose: 100.0 mg/kg/injection, schedule: Q01DX005 (ip), vehicle: saline with Tween-80
[3] = dose: 200.0 mg/kg/injection, schedule: Q01DX005 (ip), vehicle: saline with Tween-80
[4] = dose: 60.0 mg/kg/injection, schedule: Q01DX005 (ip), vehicle: Klucel (hydroxypropylcellulose) (HPC)
[5] = dose: 120.0 mg/kg/injection, schedule: Q01DX005 (ip), vehicle: Klucel (hydroxypropylcellulose) (HPC)
[6] = dose: 240.0 mg/kg/injection, schedule: Q01DX005 (ip), vehicle: Klucel (hydroxypropylcellulose) (HPC)
[7] = dose: 50.0 mg/kg/injection, schedule: Q01DX005 (ip), vehicle: Klucel (hydroxypropylcellulose) (HPC)
[8] = dose: 100.0 mg/kg/injection, schedule: Q01DX005 (ip), vehicle: Klucel (hydroxypropylcellulose) (HPC)
[9] = dose: 200.0 mg/kg/injection, schedule: Q01DX005 (ip), vehicle: Klucel (hydroxypropylcellulose) (HPC)
[10] = dose: 50.0 mg/kg/injection, schedule: Q01DX009 (ip), vehicle: saline with Tween-80
[11] = dose: 100.0 mg/kg/injection, schedule: Q01DX009 (ip), vehicle: saline with Tween-80
[12] = dose: 200.0 mg/kg/injection, schedule: Q01DX009 (ip), vehicle: saline with Tween-80

Measured: T/C

C1CC[N-]CC1.C1CC[N-]CC1.C1CC[N-]CC1.C1CC[N-]CC1.[Pt+4]
inactive: dose: 2.0 mg/kg/injection, schedule: Q01DX009 (ip), vehicle: saline 95 % of control | dose: 4.0 mg/kg/injection, schedule: Q01DX009 (ip), vehicle: saline 89 % of control | dose: 8.0 mg/kg/injection, schedule: Q01DX009 (ip), vehicle: saline 93 % of control

N/C(CC(=O)Nc1cc(C(F)(F)F)ccc1Cl)=N\O
inactive: dose: 60.0 mg/kg/injection, schedule: Q01DX005 (ip), vehicle: saline with Tween-80 108 % of control | dose: 120.0 mg/kg/injection, schedule: Q01DX005 (ip), vehicle: saline with Tween-80 100 % of control | dose: 240.0 mg/kg/injection, schedule: Q01DX005 (ip), vehicle: saline with Tween-80 108 % of control

CSc1ncc2c(=O)c3c(ccc4ccccc43)oc2n1
inactive: dose: 3.12 mg/kg/injection, schedule: Q01DX009 (ip), vehicle: saline with Tween-80 93 % of control | dose: 6.25 mg/kg/injection, schedule: Q01DX009 (ip), vehicle: saline with Tween-80 102 % of control | dose: 12.5 mg/kg/injection, schedule: Q01DX009 (ip), vehicle: saline with Tween-80 96 % of control

CCOc1ccn(CC(=O)c2ccc(Cl)s2)c(=O)n1
inactive: dose: 100.0 mg/kg/injection, schedule: Q04DX003 (ip), vehicle: saline with Tween-80 95 % of control | dose: 200.0 mg/kg/injection, schedule: Q04DX003 (ip), vehicle: saline with Tween-80 90 % of control | dose: 400.0 mg/kg/injection, schedule: Q04DX003 (ip), vehicle: saline with Tween-80 104 % of control

CCCCCC[CH2][Sn]([Cl])([CH2]C)[O][Sn]([Cl])([CH2]C)[CH2]CCCCCC (centres undefined)
inactive: dose: 12.5 mg/kg/injection, schedule: Q01DX005 (ip), vehicle: saline 86 % of control | dose: 25.0 mg/kg/injection, schedule: Q01DX005 (ip), vehicle: saline 86 % of control | dose: 50.0 mg/kg/injection, schedule: Q01DX005 (ip), vehicle: saline 98 % of control and 90 % of control | dose: 100.0 mg/kg/injection, schedule: Q01DX005 (ip), vehicle: saline 110 % of control | dose: 200.0 mg/kg/injection, schedule: Q01DX005 (ip), vehicle: saline 98 % of control

CCCCCCCCCCCCCCCCS[As](C)C
inactive: [1] 92 % of control | [2] 100 % of control | [3] 96 % of control

O=C1CSc2nc3ccc(Cl)cc3c(=O)n21
inactive: [1] 93 % of control | [2] 101 % of control | [3] 104 % of control

NC(=O)c1nnn(Cc2cc(Cl)c(C(=O)c3ccc(Cl)cc3)c(Cl)c2)c1N
inactive: [4] 103 % of control | [5] 103 % of control | [6] 115 % of control | dose: 480.0 mg/kg/injection, schedule: Q01DX005 (ip), vehicle: Klucel (hydroxypropylcellulose) (HPC) 119 % of control

O=C1CSC(c2ccccc2F)N1c1nncs1 (centres undefined)
inactive: dose: 30.0 mg/kg/injection, schedule: Q01DX005 (ip), vehicle: Klucel (hydroxypropylcellulose) (HPC) 100 % of control | [4] 99 % of control | [5] 100 % of control | [6] 110 % of control

CCOC(=O)\C(C#N)=C/C=C(C)/C(C)=C/Nc1ccc([N+](=O)[O-])cc1[N+](=O)[O-]
inactive: [7] 101 % of control | [8] 91 % of control | [9] 91 % of control

CNC(=O)OCC1=C(Sc2ccccc2)C(=O)C(OC)=C(OC)C1=O
inactive: dose: 12.5 mg/kg/injection, schedule: Q01DX005 (ip), vehicle: saline with Tween-80 106 % of control | dose: 25.0 mg/kg/injection, schedule: Q01DX005 (ip), vehicle: saline with Tween-80 108 % of control | [1] 103 % of control and 110 % of control

Cc1cc(NCCCCCCNc2cc(C)[n+](C)c3c(Cl)cccc23)c2cccc(Cl)c2[n+]1C
inactive: dose: 3.12 mg/kg/injection, schedule: Q01DX005 (ip), vehicle: suspension in saline 108 % of control | dose: 6.25 mg/kg/injection, schedule: Q01DX005 (ip), vehicle: suspension in saline 99 % of control | dose: 12.5 mg/kg/injection, schedule: Q01DX005 (ip), vehicle: suspension in saline 108 % of control

O=C(NC(Cc1cnc[nH]1)C(=O)O)c1ccccc1 (centres undefined)
inactive: [10] 92 % of control | [11] 98 % of control | [12] 98 % of control

Cn1c(CCCCCCCCc2c(C(=O)/C=C/c3ccccc3)c(=O)n(C)c(=O)n2C)c(C(=O)/C=C\c2ccccc2)c(=O)n(C)c1=O
inactive: [1] 88 % of control | [2] 90 % of control | [3] 90 % of control

Cn1c2ccc(F)cc2c(=O)c2c(O)cc3c(c21)C=CC(C)(C)O3
inactive: [7] 100 % of control | [8] 102 % of control | [9] 94 % of control

O=C1NC2(CCCCC2)C(=O)N1CCN1C(=O)NC2(CCCCC2)C1=O
inactive: dose: 0.75 mg/kg/injection, schedule: Q01DX009 (ip), vehicle: saline 104 % of control | dose: 1.5 mg/kg/injection, schedule: Q01DX009 (ip), vehicle: saline 91 % of control | dose: 3.0 mg/kg/injection, schedule: Q01DX009 (ip), vehicle: saline 106 % of control | dose: 6.0 mg/kg/injection, schedule: Q01DX009 (ip), vehicle: saline 118 % of control | dose: 12.0 mg/kg/injection, schedule: Q01DX009 (ip), vehicle: saline 106 % of control

CC1=NN(C(=O)c2ccncc2)C(=O)C1N=Nc1ccc(S(=O)(=O)Nc2nc(C)cc(C)n2)cc1 (centres undefined)
inactive: [10] 104 % of control | [11] 95 % of control | [12] 95 % of control

COc1ccc(/C=N/NC(=O)C(=O)Nc2ccc(Cl)c([N+](=O)[O-])c2)cc1OC
inactive: [1] 93 % of control | [2] 92 % of control | [3] 103 % of control

N#Cc1ccc(NN=NCCCl)cc1
inactive: dose: 12.5 mg/kg/injection, schedule: Q01DX009 (ip), vehicle: distilled water + Tween-80 114 % of control | dose: 12.5 mg/kg/injection, schedule: Q01DX009 (ip), vehicle: distilled water + alcohol 95 % of control | dose: 25.0 mg/kg/injection, schedule: Q01DX009 (ip), vehicle: distilled water + alcohol 91 % of control | dose: 50.0 mg/kg/injection, schedule: Q01DX009 (ip), vehicle: distilled water + alcohol 97 % of control | dose: 100.0 mg/kg/injection, schedule: Q01DX009 (ip), vehicle: distilled water + Tween-80 87 % of control | dose: 100.0 mg/kg/injection, schedule: Q01DX009 (ip), vehicle: distilled water + alcohol 88 % of control

Cc1ccc(S(=O)(=O)/N=C/[N-][n+]2cccc(C)c2)cc1
inactive: dose: 100.0 mg/kg/injection, schedule: Q04DX003 (ip), vehicle: saline 104 % of control | dose: 200.0 mg/kg/injection, schedule: Q04DX003 (ip), vehicle: saline 97 % of control | dose: 400.0 mg/kg/injection, schedule: Q04DX003 (ip), vehicle: saline 97 % of control

C/C(=N\O)C1(O)CCCCC1
inactive: dose: 50.0 mg/kg/injection, schedule: Q01DX009 (ip), vehicle: Klucel (hydroxypropylcellulose) (HPC) 108 % of control | dose: 100.0 mg/kg/injection, schedule: Q01DX009 (ip), vehicle: Klucel (hydroxypropylcellulose) (HPC) 108 % of control | dose: 200.0 mg/kg/injection, schedule: Q01DX009 (ip), vehicle: Klucel (hydroxypropylcellulose) (HPC) 105 % of control | dose: 400.0 mg/kg/injection, schedule: Q01DX009 (ip), vehicle: Klucel (hydroxypropylcellulose) (HPC) 113 % of control

COC(=O)c1[nH]c(=O)c2ccc([N+](=O)[O-])cc2c1O
inactive: [10] 86 % of control | [11] 88 % of control | [12] 86 % of control

ICC1Cc2ccccc2O1 (centres undefined)
inactive: [10] 99 % of control | [11] 101 % of control | [12] 103 % of control

O=C(OCC(Cl)(Cl)Cl)N1[C@@H]2C=C[C@@H](N1C(=O)OCC(Cl)(Cl)Cl)[C@@]13CCCC21O3 (some centres undefined)
inactive: [7] 103 % of control | [8] 105 % of control | [9] 103 % of control

COc1cccc2c1C(=O)c1c(OC)c3c(c(OC)c1C2=O)C[C@@](O)(C(C)=O)C[C@@H]3OC1CC(N)C(O)C(C)O1 (some centres undefined)
active: dose: 128.0 mg/kg/injection, schedule: Q01DX009 (ip), vehicle: water 169 % of control
inactive: dose: 0.5 mg/kg/injection, schedule: Q01DX009 (ip), vehicle: water 103 % of control | dose: 1.0 mg/kg/injection, schedule: Q01DX009 (ip), vehicle: water 110 % of control | dose: 2.0 mg/kg/injection, schedule: Q01DX009 (ip), vehicle: water 102 % of control | dose: 4.0 mg/kg/injection, schedule: Q01DX009 (ip), vehicle: water 106 % of control | dose: 8.0 mg/kg/injection, schedule: Q01DX009 (ip), vehicle: water 114 % of control and 119 % of control | dose: 16.0 mg/kg/injection, schedule: Q01DX009 (ip), vehicle: water 111 % of control and 123 % of control
